Laboratory results taken from patent US9186338B2, “Solubility enhancer and use thereof” (priority 2005, dated 2015).

From the text: In accordance with yet another aspect of the present invention, there is provided a method for determining the solubility of said drugs, wherein the method comprises incremental addition of said drugs taken from stock to said solubility enhancer, shaking the resultant in an ultrasonic bath to obtain clear solution and determining the solubility.
The solutions of Isotretinoin were made by incremental addition technique, i.e. by adding portions of the drug from pre-weighed stock (Isotretinoin) to known volume of the alkanamide solution and shaking in an ultrasonic bath till the solution was clear. Thereafter the second weight was recorded & solubility was determined.
(§1) Thereafter the second weight was recorded & solubility was determined.
as §1

CC1=C(/C=C/C(C)=C/C=C/C(C)=C\C(=O)O)C(C)(C)CCC1 [Isotretinoin]
amount of drug solubilized in 1 ml of Hexanamide: 206 mg | amount of drug solubilized in 1 ml of Octanamide: 139.2 mg | solubility in Hexanamide: 20.6 % w/v | solubility in Octanamide: 13.92 % w/v
